Biological target: T1, recombinant human C-proteinase (Homo sapiens, UniProt P13497)
T1 sequence (P13497 121-986): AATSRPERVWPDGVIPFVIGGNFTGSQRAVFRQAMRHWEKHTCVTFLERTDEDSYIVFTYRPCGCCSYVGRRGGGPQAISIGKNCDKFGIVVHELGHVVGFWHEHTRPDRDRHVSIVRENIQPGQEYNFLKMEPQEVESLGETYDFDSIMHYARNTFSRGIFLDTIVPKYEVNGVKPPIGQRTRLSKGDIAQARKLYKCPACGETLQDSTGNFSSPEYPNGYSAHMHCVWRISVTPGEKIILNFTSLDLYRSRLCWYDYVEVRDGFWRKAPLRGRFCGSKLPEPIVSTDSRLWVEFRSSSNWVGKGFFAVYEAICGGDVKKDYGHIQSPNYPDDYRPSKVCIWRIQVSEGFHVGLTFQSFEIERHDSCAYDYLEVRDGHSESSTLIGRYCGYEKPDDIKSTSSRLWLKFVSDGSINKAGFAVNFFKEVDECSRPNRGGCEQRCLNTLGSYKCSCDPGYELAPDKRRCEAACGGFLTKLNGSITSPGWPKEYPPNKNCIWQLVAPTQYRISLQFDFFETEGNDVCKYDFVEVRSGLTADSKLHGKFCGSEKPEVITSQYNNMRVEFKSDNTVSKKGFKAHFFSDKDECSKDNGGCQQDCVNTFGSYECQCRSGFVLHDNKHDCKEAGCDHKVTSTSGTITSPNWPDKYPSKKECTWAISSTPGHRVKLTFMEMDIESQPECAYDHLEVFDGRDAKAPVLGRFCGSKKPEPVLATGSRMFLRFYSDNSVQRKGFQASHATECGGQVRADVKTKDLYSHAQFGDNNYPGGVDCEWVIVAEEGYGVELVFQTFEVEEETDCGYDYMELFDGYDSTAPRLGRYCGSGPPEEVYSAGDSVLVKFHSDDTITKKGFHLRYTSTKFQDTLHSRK
Assay: C-proteinase IC50 assay with fluorogenic peptide
Type: biochemical
Details: not given
Procedure: The reaction was started with the addition of 20 μl of the recombinant human C-proteinase mix. The reaction proceeded for 4 hours at 37° C. and the fluorescence was measured using a Bio-Tek Fl-600.

Row | SMILES | IC50 [µM]
1 | COc1ccc(S(=O)(=O)N(CCC(=O)NO)CCc2ccccn2)cc1 [compound 1132] | 8

Same assay, conditions: IC50 (μM) Of Various C-Proteinase Inhibitors

Row | SMILES | IC50 [µM]
2 | COc1ccc(S(=O)(=O)N(CCC(=O)NO)Cc2ccccc2)cc1 [compound 121] | 9
3 | COc1ccc(S(=O)(=O)N(CCC(=O)NO)c2ccccc2)cc1 [compound 124] | 2
4 | COc1ccc(S(=O)(=O)N(CCc2ccccc2)CC(=O)NO)cc1 [compound 128] | 15.3
5 | COc1ccc(N(CCC(=O)NO)S(=O)(=O)c2ccc(OC)cc2)cc1 [compound 208] | 1.68
6 | COc1ccc(S(=O)(=O)N(CCC(=O)NO)CCN2CCOCC2)cc1 [compound 1131] | 80.5
7 | COc1ccc(CCN(CCC(=O)NO)S(=O)(=O)c2cccc(/C(N)=N/O)c2)cc1 [compound 1456] | 0.4

Same assay, conditions: IC50 of Cpase

Row | SMILES | IC50 [µM]
8 | COc1ccc(N(CCC(=O)NO)S(=O)(=O)c2ccc(OC)cc2)cc1 [compound 208] | 1.68

Same assay, conditions: recombinant human C-proteinase, 50 μM fluorogenic peptide, 4 hours at 37° C.; read-out: IC50 (μM) Of Various C-Proteinase Inhibitors

Row | SMILES | IC50 [µM]
9 | COc1ccc(CCN(CC(=O)NO)S(=O)(=O)c2ccc(OC)cc2)cc1 [compound 204] | 22.1
10 | COc1ccc(S(=O)(=O)N(CCC(=O)NO)Cc2ccc(Cl)cc2)cc1 [compound 1237] | 3.57
11 | O=C(CCN(CCc1ccccc1)S(=O)(=O)c1ccc([N+](=O)[O-])cc1)NO [compound 1268] | 3.03
12 | O=C(CCN(CCc1ccccc1)S(=O)(=O)c1cccs1)NO [compound 1270] | 1.21
13 | COc1ccc(S(=O)(=O)N(CCC(=O)NO)Cc2ccc3c(c2)OCO3)cc1 [compound 1273] | 0.63
14 | COc1ccc(S(=O)(=O)N(CCC(=O)NO)CCc2ccc(Cl)cc2)cc1 [compound 1300] | 2.43
15 | COc1ccc(S(=O)(=O)N(CCC(=O)NO)C2C3CC4CC(C3)CC2C4)cc1 (centres unmarked) [compound 1335] | 36.5
16 | CC(=O)Nc1ccc(S(=O)(=O)N(CCC(=O)NO)Cc2ccc3c(c2)OCO3)cc1 [compound 1357] | 0.55
17 | O=C(CCN(Cc1ccc2c(c1)OCO2)S(=O)(=O)c1ccc(S(=O)(=O)c2ccccc2)s1)NO [compound 1361] | 0.88
18 | O=C(CCN(Cc1ccc2c(c1)OCO2)S(=O)(=O)c1cccc2nsnc12)NO [compound 1362] | 1.51
19 | O=C(CCN(Cc1ccc2c(c1)OCO2)S(=O)(=O)c1ccc(Br)s1)NO [compound 1367] | 1.47
20 | N/C(=N\O)c1ccc(S(=O)(=O)N(CCC(=O)NO)Cc2ccc3c(c2)OCO3)cc1 [compound 1369] | 0.23
21 | O=C(CCN(Cc1ccc2c(c1)OCO2)S(=O)(=O)c1cccs1)NO [compound 1371] | 0.91
22 | CCCCOc1ccc(S(=O)(=O)N(CCC(=O)NO)Cc2ccc3c(c2)OCO3)cc1 [compound 1372] | 1.7
23 | COc1ccccc1CCN(CCC(=O)NO)S(=O)(=O)c1ccc(C(=O)O)cc1 [compound 1405] | 1.46
24 | N/C(=N\O)c1ccc(S(=O)(=O)N(CCC(=O)NO)CCc2cccs2)cc1 [compound 1409] | 0.18
25 | COc1ccc(S(=O)(=O)N(CCC(=O)NO)Cc2ccc3c(c2)OCO3)cc1OC [compound 1410] | 1.77
26 | CC(=O)Nc1ccc(S(=O)(=O)N(CCC(=O)NO)CCc2cccs2)cc1 [compound 1411] | 0.39
27 | O=C(CCN(CCc1cccs1)S(=O)(=O)Cc1ccccc1)NO [compound 1414] | 3.5
28 | CCCCOc1ccc(S(=O)(=O)N(CCC(=O)NO)CCc2cccs2)cc1 [compound 1416] | 0.82
29 | O=C(CCN(CCc1cccs1)S(=O)(=O)c1ccc(Br)s1)NO [compound 1417] | 1.67
30 | O=C(CCN(CCc1cccs1)S(=O)(=O)c1ccc(S(=O)(=O)c2ccccc2)s1)NO [compound 1419] | 3.95
31 | O=C(CCN(CCc1cccs1)S(=O)(=O)c1cccs1)NO [compound 1425] | 1.32
32 | N/C(=N\O)c1cccc(S(=O)(=O)N(CCC(=O)NO)CCc2cccs2)c1 [compound 1457] | 0.84
33 | N/C(=N\O)c1cccc(S(=O)(=O)N(CCC(=O)NO)Cc2ccc3c(c2)OCO3)c1 [compound 1458] | 0.25
34 | CS(=O)(=O)c1ccc(S(=O)(=O)N(CCC(=O)NO)CCc2cccs2)cc1 [compound 1463] | 0.7
35 | CS(=O)(=O)c1ccc(S(=O)(=O)N(CCC(=O)NO)Cc2ccc3c(c2)OCO3)cc1 [compound 1464] | 0.35
36 | COc1ccc(CCN(CCC(=O)NO)S(=O)(=O)c2cccc(N)c2)cc1 [compound 1492] | 0.32
37 | COc1ccc(CCN(CCC(=O)NO)S(=O)(=O)c2ccc(-c3nnn[nH]3)cc2)cc1 [compound 1496] | 0.25

Test system: human foreskin fibroblasts
Assay: Cytotoxicity: metabolic activity (WST-1) of quiescent fibroblasts exposed to inhibitor
Type: cell-based
Details: 25 μM compound, 0.5% DMSO, 48 hours, 60% or below = very sick or dead
Procedure: C-proteinase inhibitors were studied in cytotoxicity assays wherein quiescent cells were exposed to C-proteinase inhibitors for a given time and cell viability measured. By examining cellular metabolic activity, cell viability and cell survival were determined.
C-proteinase inhibitors were tested on human foreskin fibroblasts that had been grown to confluence in 96 well microtiter plates in Dulbecco's Modified Eagle Medium (DMEM) containing 10% fetal calf serum. Shortly before adding the inhibitors, the media was removed and 90 μl per microtiter well of fresh serum-free DMEM was added to the cells. The C-proteinase inhibitors were made up as concentrated stocks containing compound at 250 μM in the presence of 5% DMSO as solvent. A concentrated stock of 10 μl was added to each microtiter well to give a final compound concentration of 25 μM in the presence of 0.5% DMSO. The cells were incubated in the presence of the C-proteinase inhibitor for 48 hours, and then cell viability and survival were measured as a function of metabolic activity. To examine cellular metabolic activity, 10 μl of WST-1 reagent (Boehringer Mannheim) was added to each well of a 96 well microtiter plate containing quiescent cells that were already in media. The plate was incubated at 37° C. for 120 minutes and removed. The absorbance at 450 nm-650 nm was recorded. […] Controls included untreated healthy cells, and cells killed with 0.1% saponin.
Cytotoxicity was evaluated as a function of cellular survival. Cellular survival was determined by measuring the metabolic activity of the quiescent cells after exposure to the C-proteinase inhibitors. To determine the metabolic activity of the cells, the color change of a trazolium dye over time was examined according to Mossmann, […], Immunol. Methods 65:66; Carmichael, 1987, Cancer Res 47:936, incorporated herein by reference. Healthy cells cleaved the dye producing a colored product that can be quantitated. […] Dead cells had no metabolic activity and no effect on the dye was shown.
The amount of dye cleaved by cells that had been incubated with inhibitor, expressed as a percentage relative to untreated cells, is shown in TABLE 2. Cells that register at 60% or below are considered either very sick or dead. Control cells that were intentionally killed give a value of close to 20%.

Row | SMILES | Percent Metabolic Activity of Fibroblasts Exposed To Various C-Proteinase Inhibitors Relative to Untreated Fibroblasts [%]
38 | COc1ccc(S(=O)(=O)N(CCC(=O)NO)CCc2ccc(Cl)cc2)cc1 [Compound 1300] | 109.9
39 | COc1ccc(S(=O)(=O)N(CCC(=O)NO)C2C3CC4CC(C3)CC2C4)cc1 (centres unmarked) [Compound 1335] | 113.3
40 | CC(=O)Nc1ccc(S(=O)(=O)N(CCC(=O)NO)Cc2ccc3c(c2)OCO3)cc1 [Compound 1357] | 108.1
41 | CCCCCCCCS(=O)(=O)N(CCC(=O)NO)Cc1ccc2c(c1)OCO2 [Compound 1359] | 101.1
42 | O=C(CCN(Cc1ccc2c(c1)OCO2)S(=O)(=O)c1ccc(S(=O)(=O)c2ccccc2)s1)NO [Compound 1361] | 103.4
43 | O=C(CCN(Cc1ccc2c(c1)OCO2)S(=O)(=O)c1cccc2nsnc12)NO [Compound 1362] | 119.4
44 | O=C(CCN(Cc1ccc2c(c1)OCO2)S(=O)(=O)c1ccc(Br)s1)NO [Compound 1367] | 114.5
45 | N/C(=N\O)c1ccc(S(=O)(=O)N(CCC(=O)NO)Cc2ccc3c(c2)OCO3)cc1 [Compound 1369] | 117.1
46 | O=C(CCN(Cc1ccc2c(c1)OCO2)S(=O)(=O)c1cccs1)NO [Compound 1371] | 114.4
47 | CCCCOc1ccc(S(=O)(=O)N(CCC(=O)NO)Cc2ccc3c(c2)OCO3)cc1 [Compound 1372] | 109.2
48 | COc1ccc(S(=O)(=O)N(CCC(=O)NO)CC2COc3ccccc3O2)cc1 (centres unmarked) [Compound 1374] | 117.6
49 | COc1ccccc1CCN(CCC(=O)NO)S(=O)(=O)c1ccc(C(=O)O)cc1 [Compound 1405] | 114.5
50 | N/C(=N\O)c1ccc(S(=O)(=O)N(CCC(=O)NO)CCc2cccs2)cc1 [Compound 1409] | 108.8
51 | COc1ccc(S(=O)(=O)N(CCC(=O)NO)Cc2ccc3c(c2)OCO3)cc1OC [Compound 1410] | 108.6
52 | CC(=O)Nc1ccc(S(=O)(=O)N(CCC(=O)NO)CCc2cccs2)cc1 [Compound 1411] | 108.2
53 | O=C(CCN(CCc1cccs1)S(=O)(=O)Cc1ccccc1)NO [Compound 1414] | 112.6

From patent publication US6506936B1, “N-substituted arylsulfonylamino hydroxamic acids useful as inhibitors of c-proteinase and for treating or preventing disorders related to unregulated collagen production” (FibroGen, Inc., priority 1999, dated 2003)
